Experimental data reported in patent US8404673B2, “Carbocyclic GlyT1 receptor antagonists” (Hoffmann-La Roche Inc., priority 2009, dated 2013).
Where two headings read alike, the source gives them in different places.

Molecular target: T1, mGlyT-1b (Mus musculus, UniProt P28571)
T1 construct: host or cells: Flp-in-CHO
T1 sequence (P28571 1-651 isoform P28571-2): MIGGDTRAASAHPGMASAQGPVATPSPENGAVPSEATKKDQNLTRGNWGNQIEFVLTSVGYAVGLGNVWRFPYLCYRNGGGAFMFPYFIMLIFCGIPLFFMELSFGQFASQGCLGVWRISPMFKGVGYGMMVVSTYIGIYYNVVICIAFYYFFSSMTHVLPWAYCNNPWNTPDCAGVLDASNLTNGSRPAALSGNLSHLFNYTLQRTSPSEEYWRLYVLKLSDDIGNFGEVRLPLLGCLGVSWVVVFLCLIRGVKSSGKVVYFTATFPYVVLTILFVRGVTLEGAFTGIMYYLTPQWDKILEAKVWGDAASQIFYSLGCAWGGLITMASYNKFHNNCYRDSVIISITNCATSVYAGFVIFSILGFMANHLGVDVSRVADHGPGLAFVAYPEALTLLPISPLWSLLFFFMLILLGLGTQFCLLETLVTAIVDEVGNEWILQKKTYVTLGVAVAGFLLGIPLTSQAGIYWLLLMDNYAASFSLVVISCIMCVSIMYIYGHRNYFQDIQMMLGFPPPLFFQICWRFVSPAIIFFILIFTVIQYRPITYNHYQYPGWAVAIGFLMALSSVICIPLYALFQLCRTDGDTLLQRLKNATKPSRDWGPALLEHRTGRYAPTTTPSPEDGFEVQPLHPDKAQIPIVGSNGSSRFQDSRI
Assay: Glycine Uptake Inhibition Assay (mGlyT-1b)
Assay type: cell-based

Structure (SMILES)	IC50 (IC50 data)	IC50 (read-out: IC50 data)
CSc1cc(C(F)(F)F)cc(C(F)(F)F)c1C(=O)N[C@@H]1CCC[C@@H]1N1CCCC1 (single isomer, unassigned) [Example 118, (+)-cis-2-Methylsulfanyl-N-(2-pyrrolidin-1-yl-cyclopentyl)-4,6-bis-trifluoromethyl-benzamide]	0.06 µM	
Cc1cc(C(F)(F)F)cc(C(F)(F)F)c1C(=O)N[C@H]1CCC[C@H]1N1CCCC1 (relative stereo) [Example 103, cis-2-Methyl-N-(2-pyrrolidin-1-yl-cyclopentyl)-4,6-bis-trifluoromethyl-benzamide]	0.0249 µM	
COc1cc(C(F)(F)F)cc(SC)c1C(=O)N[C@@H]1CCC[C@@H]1NC1CCC1 (single isomer, unassigned) [Example 62, (−)-cis-N-(-2-Cyclobutylamino-cyclopentyl)-2-methoxy-6-methylsulfanyl-4-trifluoromethyl-benzamide]		0.0316 µM
O=C(N[C@H]1CCC[C@H]1N1CCCC1)c1ccc(C(F)(F)F)cc1C(F)(F)F (single isomer, unassigned) [Example 78, (−)-N-(2-Pyrrolidin-1-yl-cyclopentyl)-2,4-bis-trifluoromethyl-benzamide]	0.0754 µM	
O=C(NC1CCCC1N1CCCC1)c1c(Cl)cc(C(F)(F)F)cc1Cl (single isomer, unassigned; (+)) [Example 128, (+)-2,6-Dichloro-N-cis-(2-pyrrolidin-1-yl-cyclopentyl)-4-trifluoromethyl-benzamide]	0.0691 µM	
CCc1cccc(C2CC2)c1C(=O)N[C@@H]1CCC[C@@H]1N1CCCC1 (single isomer, unassigned) [Example 120, (−)-cis-2-Cyclopropyl-6-ethyl-N-(2-pyrrolidin-1-yl-cyclopentyl)-benzamide]	0.0552 µM	
O=C(NC1CCCC1NC1CCCC1)c1ccc(C(F)(F)F)cc1C1CC1 (single isomer, unassigned; (+)) [Example 109, (+)-cis-N-2-Cyclopentylamino-cyclopentyl)-2-cyclopropyl-4-trifluoromethyl-benzamide]		0.0253 µM
COc1cc(C(F)(F)F)cc(SC)c1C(=O)N[C@@H]1CCC[C@@H]1N1CCCC1 (single isomer, unassigned) [Example 59, (+)-2-Methoxy-6-methylsulfanyl-N-(2-pyrrolidin-1-yl-cyclopentyl)-4-trifluoromethyl-benzamide]	0.0611 µM	
CSc1cc(C(F)(F)F)cc(C(F)(F)F)c1C(=O)N[C@@H]1CCC[C@@H]1N1CCCC1 (single isomer, unassigned) [Example 119, (−)-cis-2-Methylsulfanyl-N-(2-pyrrolidin-1-yl-cyclopentyl)-4,6-bis-trifluoromethyl-benzamide]	0.0654 µM	
CSc1cc(C(F)(F)F)ccc1C(=O)N[C@@H]1CCC[C@@H]1N1CCCC1 (single isomer, unassigned) [Example 84, (+)-2-Methylsulfanyl-N-(2-pyrrolidin-1-yl-cyclopentyl)-4-trifluoromethyl-benzamide]	0.089 µM	
CSc1cc(C(F)(F)F)cc(C(F)(F)F)c1C(=O)N[C@H]1CCC[C@H]1N1CCCC1 (racemic) [Example 104, cis-2-Methylsulfanyl-N-(2-pyrrolidin-1-yl-cyclopentyl)-4,6-bis-trifluoromethyl-benzamide]	0.0189 µM	
O=C(NC1CCCC1NC1CCCC1)c1ccc(C(F)(F)F)cc1C1CC1 (single isomer, unassigned; (-)) [Example 110, (−)-cis-N-2-Cyclopentylamino-cyclopentyl)-2-cyclopropyl-4-trifluoromethyl-benzamide]		0.0543 µM
CCc1cc(C(F)(F)F)cc(C(F)(F)F)c1C(=O)N[C@H]1CCC[C@H]1N1CCCC1 (relative stereo) [Example 137, 2-Ethyl-N-((cis)-2-pyrrolidin-1-yl-cyclopentyl)-4,6-bis-trifluoromethyl-benzamide]	0.0462 µM	
COc1cc(C(F)(F)F)cc(SC)c1C(=O)N[C@@H]1CCC[C@@H]1N1CCCC1 (single isomer, unassigned) [Example 58, (−)-2-Methoxy-6-methylsulfanyl-N-(2-pyrrolidin-1-yl-cyclopentyl)-4-trifluoromethyl-benzamide]	0.0276 µM	
